Data set [1] in a line: Plasma methadone, naltrexone and naltrexone metabolites, multiple oral doses (Example III). In kind it is in vivo, dog. The note with it: multiple oral doses of methadone/fluconazole/naltrexone formulation.
Excerpt: Twelve healthy Beagle dogs were divided into two groups of 6 each in a parallel study design. […] Group 1 simulated a patient dropped off the night before surgery, while Group 2 simulated a patient dropped off in the morning for same day early afternoon surgery. Rectal temperature was monitored as a marker of central opioid effects throughout the study and von Frey thresholds were obtained to assess the antinociceptive effects.
Data set [2] in a line: Plasma methadone, fluconazole, naltrexone and naltrexone metabolite concentrations (Example IV). From the text: Anesthesia was monitored by licensed veterinary technicians.
The conditions of data set [3]: group administered naltrexone 0.25 mg/kg PO with methadone and fluconazole.
Excerpt: (§1) Twelve healthy Beagle dogs were divided into two groups of 6 each in a parallel study design. […] Rectal temperature was monitored as a marker of central opioid effects throughout the study.
In another data set the test system is healthy Beagle dogs. The experiment in a line: Rectal temperature as marker of central opioid effects, methadone/fluconazole with or without naltrexone (Example II). The data set is classed as in vivo, dog. The note with it: naltrexone 0.25 mg/kg PO added to methadone 1 mg/kg and fluconazole 5 mg/kg PO.

Like-named read-outs stand apart in the source and are kept apart here.

Excerpt for healthy Beagle dogs: as §1

For the compound `O=C(O)[C@H]1O[C@@H](Oc2ccc3c4c2O[C@H]2C(=O)CC[C@@]5(O)[C@@H](C3)N(CC3CC3)CC[C@]425)[C@H](O)[C@@H](O)[C@@H]1O` [naltrexone glucuronide], the “Plasma detection of analyte” value in data set [1] was “detected in both groups”; in data set [2] (oral methadone groups), “measured in most of the samples”; in data set [3] it was “detected”.
Take `O=C1CC[C@@]2(O)[C@H]3Cc4ccc(O)c5c4[C@@]2(CCN3CC2CC2)[C@H]1O5` [naltrexone]: in the data set on healthy Beagle dogs, the “Effect of addition of naltrexone on central opioid effects of methadone with fluconazole” value is reported as “did not affect the central opioid effects”. The “Plasma detection of analyte relative to LOQ of the assay (1 ng/mL)” value in data set [1] and in data set [3] was “rarely detected above the LOQ” in each case. Also, in data set [2] (any group), the “Plasma detection of analyte” value is “not detected in any plasma sample from any group”.
For the compound `Oc1ccc2c3c1O[C@H]1[C@H](O)CC[C@@]4(O)[C@@H](C2)N(CC2CC2)CC[C@]314` [β-naltrexol], in data set [2] (oral methadone groups), the “Highest measured plasma concentration” value turned out to be 1.7 ng/mL.

For the origin of these results see US11771662B2, “Analgesic formulation for control of pain in dogs” (Kansas State University Research Foundation, priority 2017, dated 2023).
